Measured values from the supplement of paper PMC10307832.

Assays:
Assay in all cases: relative viability (nuclei count vs DMSO), 5 days (fraction); higher = more cells survive
[1] = compound: CCN1C(=O)C2=CC(=C(N=C2N(C1=O)C3CC3)N)C(=O)N + NC(=O)Nc1cc(-c2cccc(F)c2)sc1C(=O)N[C@H]1CCCNC1 [AZD7762] (partner 0.2 µM)
Outline: (§1)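 For relative viability, nuclei counts in treated wells were divided by those in vehicle wells. Lung cancer cell lines had been pin-tool dosed in 1536-well plates the day after seeding and cultured for 5 days, then fixed and stained in one step (final 0.05% Triton X-100, 1% formaldehyde, 1 ug/ml Hoechst) and imaged at 4×. Doses were one drug alone or a fixed anchor-drug dose plus five library-drug doses (not always all listed) in √10 steps, and values are duplicate-plate medians.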

[2] = compound: CCN1C(=O)C2=CC(=C(N=C2N(C1=O)C3CC3)N)C(=O)N + Nc1ncn([C@H]2C[C@H](O)[C@@H](CO)O2)c(=O)n1 [Decitabine] (partner 2 µM)
Outline: as §1

[3] = compound: CCN1C(=O)C2=CC(=C(N=C2N(C1=O)C3CC3)N)C(=O)N + N=C(N)NC(=N)NCCc1ccccc1 [Phenformin] (partner 250 µM)
Outline: as §1

[4] = compound: CCN1C(=O)C2=CC(=C(N=C2N(C1=O)C3CC3)N)C(=O)N + C[C@]1(O)C[C@@H](c2nc(-c3ccc4ccc(-c5ccccc5)nc4c3)c3c(N)nccn32)C1 [Linsitinib] (partner 1 µM)
Outline: as §1

[5] = compound: CCN1C(=O)C2=CC(=C(N=C2N(C1=O)C3CC3)N)C(=O)N + CC(C)C[C@H](NC(=O)[C@H](Cc1ccccc1)NC(=O)c1cnccn1)B(O)O [Bortezomib] (partner 0.002 µM)
Outline: as §1

| Cell Line | relative viability ([1]; first compound 0.253 µM) | relative viability ([1]; first compound 0.8 µM) | relative viability ([1]; first compound 2.53 µM) | relative viability ([1]; first compound 8 µM) | relative viability ([2]; first compound 0.253 µM) | relative viability ([2]; first compound 0.8 µM) | relative viability ([2]; first compound 2.53 µM) | relative viability ([2]; first compound 8 µM) | relative viability ([3]; first compound 0.253 µM) | relative viability ([3]; first compound 0.8 µM) | relative viability ([3]; first compound 2.53 µM) | relative viability ([3]; first compound 8 µM) | relative viability ([4]; first compound 0.253 µM) | relative viability ([4]; first compound 0.8 µM) | relative viability ([4]; first compound 2.53 µM) | relative viability ([4]; first compound 8 µM) | relative viability ([5]; first compound 0.253 µM) | relative viability ([5]; first compound 0.8 µM) | relative viability ([5]; first compound 2.53 µM) | relative viability ([5]; first compound 8 µM) |
| --- | --- | --- | --- | --- | --- | --- | --- | --- | --- | --- | --- | --- | --- | --- | --- | --- | --- | --- | --- | --- |
| LK-2 | 0.516 | 0.348 | 0.359 | 0.608 | 0.249 | 0.31 | 0.317 | 0.277 | 0.375 | 0.591 | 0.408 | 0.535 | 0.575 | 0.612 | 0.655 | 0.616 | – | – | – | – |
| NCI-H358 | 0.535 | 0.536 | 0.552 | 0.564 | 0.193 | 0.207 | 0.19 | 0.227 | 0.355 | 0.351 | 0.388 | 0.298 | 0.718 | 0.852 | 0.682 | 0.808 | – | – | – | – |
| NCI-H520 | – | – | – | – | 0.483 | 0.48 | 0.474 | 0.428 | 0.582 | 0.643 | 0.59 | 0.508 | 0.938 | 0.951 | 0.961 | 1.11 | 0.574 | 0.574 | 0.743 | 0.612 |
| NCI-H522 | 0.726 | 0.735 | 0.952 | 0.922 | 0.56 | 0.73 | 0.748 | 0.723 | 0.552 | 0.565 | 0.705 | 0.546 | – | – | – | – | – | – | – | – |
| NCI-H661 | – | – | – | – | 0.544 | 0.551 | 0.517 | 0.543 | 0.287 | 0.302 | 0.267 | 0.278 | 0.568 | 0.636 | 0.558 | 0.603 | 0.809 | 0.9 | 0.793 | 0.942 |
| NCI-H1395 | 0.42 | 0.388 | 0.428 | 0.397 | 0.698 | 0.75 | 0.707 | 0.609 | 0.451 | 0.428 | 0.464 | 0.439 | 1.13 | 0.888 | 0.974 | 1.13 | – | – | – | – |
| NCI-H1650 | – | – | – | – | 0.351 | 0.404 | 0.43 | 0.401 | 0.47 | 0.4 | 0.367 | 0.379 | – | – | – | – | 0.192 | 0.185 | 0.182 | 0.187 |
| NCI-H1793 | 0.409 | 0.408 | 0.649 | 0.501 | 0.527 | 0.6 | 0.531 | 0.546 | – | 0.38 | 0.352 | 0.408 | 0.656 | 0.944 | – | 0.956 | – | – | – | – |
| NCI-H1944 | 0.541 | 0.479 | 0.528 | 0.487 | 0.485 | 0.423 | 0.393 | 0.434 | 0.255 | 0.218 | 0.208 | 0.204 | 1.19 | 1.16 | 1.02 | 1.18 | – | – | – | – |
| NCI-H2009 | – | – | – | – | 0.385 | 0.409 | 0.394 | 0.379 | 0.481 | 0.485 | 0.453 | 0.453 | 1.24 | 1.15 | 1.11 | 1.1 | 0.963 | 1.09 | 0.965 | 0.94 |
| NCI-H2023 | – | – | – | – | 0.214 | 0.223 | 0.209 | 0.215 | 0.411 | 0.42 | 0.357 | 0.388 | 0.68 | 0.621 | 0.548 | 0.652 | 0.829 | 0.915 | 0.95 | 0.984 |
| NCI-H2170 | 0.889 | 0.846 | 0.882 | 0.867 | 0.495 | 0.488 | 0.462 | 0.404 | 0.42 | 0.444 | 0.418 | 0.445 | – | – | – | – | – | – | – | – |
| NCI-H2228 | – | – | – | – | – | – | – | – | 0.405 | 0.372 | 0.331 | 0.395 | 0.984 | 0.943 | 0.606 | 0.969 | 1.03 | 1.01 | 1.12 | 1.24 |
| SK-LU-1 | – | – | – | – | 0.63 | 0.72 | 0.782 | 0.669 | 0.538 | 0.587 | 0.614 | 0.561 | 1.02 | 1.14 | 1.23 | 1.06 | – | 1.36 | 1.29 | 1.29 |
| SK-MES-1 | – | – | – | – | 0.381 | 0.359 | 0.4 | 0.365 | 0.628 | 0.687 | 0.662 | 0.642 | 1.07 | 0.984 | 1.02 | 1.13 | – | – | – | – |
| SW 900 | 0.601 | 0.643 | 0.635 | 0.633 | 0.347 | 0.511 | 0.49 | 0.443 | 0.498 | 0.625 | 0.493 | 0.563 | – | – | – | – | – | – | – | – |
| SW 1573 | – | – | – | – | 0.573 | 0.582 | 0.434 | 0.476 | 0.398 | 0.472 | 0.276 | 0.364 | 0.817 | 0.729 | 0.797 | 0.781 | 0.994 | 1.14 | 0.935 | 1.04 |
| UMC-11 | – | – | – | – | 0.71 | 0.604 | 0.617 | 0.457 | 0.322 | 0.319 | 0.304 | 0.293 | 0.981 | 1.01 | 1.13 | 1.15 | 0.714 | 0.649 | 0.674 | 0.836 |
